Among the data in the SangsterLogP compilation are logP values, retold here.

A short description of this data set: method code SF, from DOI: 10.2478/s11696-010-0084-9.
The logP is a log measure of how a compound divides between an organic and an aqueous phase. A high value points to higher lipophilicity. As to `COc1ccc(C(=O)NCc2cccnc2)c(O)c1`, the lipophilicity (logP) amounted to 1.06.
For `COc1cccc(C(=O)NCc2ccccc2)c1O`, the logP stood at 2.39.
`Cc1cccc(C(=O)NCc2cccnc2)c1O` had a logP of 1.67.
For `COc1cccc(C(=O)NCc2ccccn2)c1O` the value was 1.48; for `O=C(NCc1cccnc1)c1cc(Br)cc(Br)c1O`, 2.84.
For `O=C(NCc1cccnc1)c1ccc(Cl)cc1O`, the logP came out at 1.74.
Molecule `O=C(NCc1cccnc1)c1cc(Cl)cc(Cl)c1O` had a logP of 2.3.
The molecule `O=C(NCc1cccnc1)c1cc(Br)ccc1O` gave a logP of 2.01.
`O=C(NCc1ccccn1)c1ccc(Cl)cc1O` showed a logP of 2.16.
The same measure for `Cc1ccc(C(=O)NCc2ccccn2)c(O)c1`: 2.09.
For `Cc1cccc(C(=O)NCc2ccccn2)c1O` the value was 2.09; for `O=C(NCc1ccccn1)c1cc(Br)ccc1O`, 2.43; for `O=C(NCc1ccccc1)c1ccccc1O`, 2.52.
For `COc1cccc(C(=O)NCc2cccnc2)c1O` the value was 1.06.
Turning to `O=C(NCc1ccccn1)c1cc(F)ccc1O`, the logP is 1.76.
The same measure for `O=C(NCc1ccccc1)c1cc(Cl)ccc1O`: 3.08; for `O=C(NCc1ccccc1)c1ccc(Cl)cc1O`: 3.08.
`O=C(NCc1ccccc1)c1cc(Cl)cc(Cl)c1O` returned a logP of 3.64.
For `O=C(NCc1cccnc1)c1cc(F)ccc1O` the value was 1.34; for `Cc1ccc(C(=O)NCc2cccnc2)c(O)c1`, 1.67.
The same measure for `O=C(NCc1ccccc1)c1cc(Br)ccc1O`: 3.53; for `O=C(NCc1ccccn1)c1cc(Br)cc(Br)c1O`: 3.26; for `O=C(NCc1ccccn1)c1cc(Cl)ccc1O`: 2.16.
For `O=C(NCc1ccccc1)c1cc(Br)cc(Br)c1O` the value was 4.18; for `O=C(NCc1cccnc1)c1cc(Cl)ccc1O`, 1.74; for `O=C(NCc1cccnc1)c1ccccc1O`, 1.18.
